Experiment [1] has as its system phosphorylation of EGFR in NCI-H1975 cell line that harbors the EGFR L858R T790 M mutations. The experiment in a line: NCI-H1975 pEGFR AlphaLISA assay. The experiment is classed as cell-based. Conditions: p-EGFR (Tyr1068), 4-5 hours incubation, read-out: Ext pEGFR H1975 GMean IC50 (nM) Protocol: @ Pharmaron AlphaLISA (Num). As to the method: Inhibitory effects of the compounds of the disclosure were evaluated in cellular assays that measure level of intracellular phosphorylation of EGFR in NCI-H1975 cell line that harbors the EGFR L858R T790 M mutations (ATCC, CRL-5908) using AlphaLISA sureFire ultra p-EGFR (Tyr1068) assay kit (PerkinElmer, ALSU-PEGFR-A50K). The NCI-H1975 cells were seeded at 12.5K/well in 22 μL into 384 well opti plate (PerkinElmer, 6007299) and adhering overnight at 37° C./5% CO2. On the next day, the test compounds and DMSO control were added into H1975 cell plate followed by incubation at 37° C./5% CO2 for 4-5 hours. The cells were then spin down in the 384-well plate and lysed with 10 μL of 1× AlphaLISA lysis buffer followed by shaking at 600 rpm for 10 minutes at room temperature. After that, 5 μL of an acceptor bead mix was added to each well followed by incubation at room temperature for 1.5-2 h in dark. Then 5 μL of a donor bead mix was added to each well followed by overnight incubation at room temperature in dark. On the next day, the plate was read at a compatible plate reader to obtain pEGFR signal. Percent of pEGFR inhibition was plotted against log concentration of compounds to generate IC50 values.

The target in experiment [2] is T1, EGFR (L858R T790 M C797S) (Homo sapiens, UniProt P00533, C797S/L858R/T790M).
T1 construct: purchased SignalChem E10-122VG
T1 sequence (P00533 25-1210 T790M/C797S/L858R): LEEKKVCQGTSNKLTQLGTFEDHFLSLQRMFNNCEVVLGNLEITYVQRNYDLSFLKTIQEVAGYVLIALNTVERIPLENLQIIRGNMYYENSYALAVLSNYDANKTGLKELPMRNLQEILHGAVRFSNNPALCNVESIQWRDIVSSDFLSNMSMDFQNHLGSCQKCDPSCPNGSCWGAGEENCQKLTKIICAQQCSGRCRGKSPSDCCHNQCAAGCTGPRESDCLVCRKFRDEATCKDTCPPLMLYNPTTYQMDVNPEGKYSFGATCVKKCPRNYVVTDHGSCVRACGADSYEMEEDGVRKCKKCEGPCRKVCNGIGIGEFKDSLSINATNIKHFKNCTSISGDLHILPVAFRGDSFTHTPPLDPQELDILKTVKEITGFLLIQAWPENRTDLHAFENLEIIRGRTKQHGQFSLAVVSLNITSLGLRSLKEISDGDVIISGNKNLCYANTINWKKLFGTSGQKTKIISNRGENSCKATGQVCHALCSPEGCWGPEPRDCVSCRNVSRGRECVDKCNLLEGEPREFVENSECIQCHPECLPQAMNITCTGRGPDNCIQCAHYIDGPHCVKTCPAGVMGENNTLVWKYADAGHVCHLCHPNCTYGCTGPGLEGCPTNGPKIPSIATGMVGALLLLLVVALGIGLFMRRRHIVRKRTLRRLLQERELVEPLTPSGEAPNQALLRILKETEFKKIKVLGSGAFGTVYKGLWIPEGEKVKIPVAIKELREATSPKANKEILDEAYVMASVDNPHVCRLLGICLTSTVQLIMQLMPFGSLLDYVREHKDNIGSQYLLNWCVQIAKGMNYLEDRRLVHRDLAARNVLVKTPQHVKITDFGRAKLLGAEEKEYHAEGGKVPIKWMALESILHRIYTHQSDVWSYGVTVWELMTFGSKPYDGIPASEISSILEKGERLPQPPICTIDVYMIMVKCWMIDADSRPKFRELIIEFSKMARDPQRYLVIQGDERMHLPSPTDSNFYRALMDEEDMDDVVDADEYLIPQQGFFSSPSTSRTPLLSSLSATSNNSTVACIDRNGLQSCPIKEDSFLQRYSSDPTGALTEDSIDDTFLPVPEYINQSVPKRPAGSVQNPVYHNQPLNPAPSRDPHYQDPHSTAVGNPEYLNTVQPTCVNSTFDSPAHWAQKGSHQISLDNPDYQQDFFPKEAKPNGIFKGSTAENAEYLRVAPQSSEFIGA
The experiment in a line: Biochemical EGFR inhibition assay (Caliper mobility shift), LRTMCS mutant at 1 mM ATP. The following applies: read-out: LRTMCS (PH) IC50 (nM) @ 1 mM ATP (Num). The procedure: Inhibitory effects of the compounds of the disclosure were measured in biochemical assays that measure the phosphorylation activity of EGFR enzyme phosphorylates 2.5 micromolar 5-FAM-[…]-CONH2 peptide substrate (FL-Peptide 22, PerkinElmer, 760366) in the presence of adenosine-5′-triphosphate (ATP) and varying concentrations of the test compound in 100 mM 2-[4-(2-hydroxyethyl)piperazin-1-yl]ethanesulfonic acid (HEPES), pH 7.5, 10 mM MgCl2, 0.015% Brij-35, 1 mM dithiothreitol (DTT), 1.0% dimethylsulfoxide (DMSO). Assays were performed at 1.0 mM ATP or at ATP Km of the EGFR enzymes. Reactions proceeded until between 10% to 20% total peptides were phosphorylated at room temperature (25° C.) and were terminated with 35 mM 2,2′,2″,2′″-(ethane-1,2-diyldinitrilo)tetraacetic acid (EDTA). Product was detected using the Caliper mobility shift detection method where the phosphorylated peptide (product) and substrate were electrophoretically separated and measured. Percent activity was plotted against log concentration of compound and points to generate an apparent IC50. The following enzyme forms of EGFR were examples that were used in these assays: • EGFR WT (SignalChem, E10-112G) • EGFR (L858R T790 M C797S) (SignalChem, E10-122VG) • EGFR (d746-750) T790 M C797S (SignalChem, E10-122UG) • EGFR L858R (SignalChem, E10-122BG) • EGFR (d746-750) (SignalChem, E10-122JG)

Where [3] appears, read: Homo sapiens, NCI-H1975, NCI-H1975 cells.

Like-named read-outs stand apart in the source and are kept apart here.

A word on the IC50: it is the midpoint of a concentration-inhibition curve.

As to `Cc1ncc(-c2nccc(Nc3cc4c(C(C)C)ccc(N5C[C@H](CS(C)(=O)=O)[C@H]5C)c4cn3)n2)s1` (single isomer, unassigned) [Example 20, 5-isopropyl-8-(2R,3S)-2-methyl-3-((methylsulfonyl)methyl)azetidin-1-yl)-N-(2-(2-methylthiazol-5-yl)pyrimidin-4-yl)isoquinolin-3-amine or 5-isopropyl-8-((2S,3R)-2-methyl-3-((methylsulfonyl)methyl)azetidin-1-yl)-N-(2-(2-methylthiazol-5-yl)pyrimidin-4-yl)isoquinolin-3-amine], the IC50 in experiment [1] (NCI-H1975 cells) is under 10 nM; in experiment [2] it was at most 15 nM.

Turning to `CC(C)c1ccc(N2CC(CS(C)(=O)=O)C2)c2cnc(Nc3ccnc([C@H]4C[C@@H]4C(F)F)n3)cc12` (single isomer, unassigned) [Example 17, N-(2-((1S,2S)-2-(difluoromethyl)cyclopropyl)pyrimidin-4-yl)-5-isopropyl-8-(3-((methylsulfonyl)methyl)azetidin-1-yl)isoquinolin-3-amine or N-(2-((1R,2R)-2-(difluoromethyl)cyclopropyl)pyrimidin-4-yl)-5-isopropyl-8-(3-((methylsulfonyl)methyl)azetidin-1-yl)isoquinolin-3-amine], the IC50 is over 50 nM in experiment [1] (NCI-H1975 cells) and over 100 nM in experiment [2].

`C[C@H](CO)c1ccc(N2CC(CS(C)(=O)=O)C2)c2cnc(Nc3ccnc(-c4cnn(C)c4)n3)cc12` (single isomer, unassigned) [Example 19, (S)-2-(3-((2-(1-methyl-1H-pyrazol-4-yl)pyrimidin-4-yl)amino)-8-(3-((methylsulfonyl)methyl)azetidin-1-yl)isoquinolin-5-yl)propan-1-ol or (R)-2-(3-((2-(1-methyl-1H-pyrazol-4-yl)pyrimidin-4-yl)amino)-8-(3-((methylsulfonyl)methyl)azetidin-1-yl)isoquinolin-5-yl)propan-1-ol]: the concentration for half-maximal inhibition (IC50) in experiment [1] (NCI-H1975 cells) is over 50 nM; in experiment [2], at most 15 nM.

Take `CC(C)c1ccc(N2CC(CS(C)(=O)=O)C2)c2cnc(Nc3ccnc(C4=CCC5(CC4)OCCO5)n3)cc12` [Example 15, N-(2-(1,4-dioxaspiro[4.5]dec-7-en-8-yl)pyrimidin-4-yl)-5-isopropyl-8-(3-((methylsulfonyl)methyl)azetidin-1-yl)isoquinolin-3-amine]: the 50% inhibitory concentration (IC50) in experiment [1] (setting [3]) is 30 to 50 nM; in experiment [2], 15 to 20 nM.

Consider `CC(C)c1cnc(N2CC(CS(C)(=O)=O)C2)c2cnc(Nc3ccnc([C@]4(C)C[C@@H](O)C4)n3)cc12` (single isomer, unassigned) [Example 25, (1r,3r)-3-(4-((5-isopropyl-8-(3-((methylsulfonyl)methyl)azetidin-1-yl)-2,7-naphthyridin-3-yl)amino)pyrimidin-2-yl)-3-methylcyclobutan-1-ol or (1s,3s)-3-(4-((5-isopropyl-8-(3-((methylsulfonyl)methyl)azetidin-1-yl)-2,7-naphthyridin-3-yl)amino)pyrimidin-2-yl)-3-methylcyclobutan-1-ol], for which the IC50 in experiment [1] (NCI-H1975 cells) is over 50 nM; in experiment [2], over 100 nM.

Regarding `CC(C)c1ccc(N2CC(CS(C)(=O)=O)C2)c2cnc(Nc3ccnc(C4CC(F)C4)n3)cc12` (centres unmarked) [Example 26, N′-(2-(3-fluorocyclobutyl)pyrimidin-4-yl)-5-isopropyl-8-(3-((methylsulfonyl)methyl)azetidin-1-yl)isoquinolin-3-amine], the IC50 is over 50 nM in experiment [1] (setting [3]) and 30 to 100 nM in experiment [2].

For the compound `Cc1ncc(-c2nccc(Nc3cc4c(C(C)C)ccc(N5C[C@H](CS(C)(=O)=O)[C@H]5C)c4cn3)n2)s1` (single isomer, unassigned) [Example 21, 5-isopropyl-8-((2S,3S)-2-methyl-3-((methylsulfonyl)methyl)azetidin-1-yl)-N-(2-(2-methylthiazol-5-yl)pyrimidin-4-yl)isoquinolin-3-amine or 5-isopropyl-8-((2S,3R)-2-menthyl-3-((methylsulfonyl)methyl)azetidin-1-yl)-N-(2-(2-methylthiazol-5-yl)pyrimidin-4-yl)isoquinolin-3-amine], the IC50 is over 50 nM in experiment [1] (NCI-H1975 cells) and over 100 nM in experiment [2].

On to `Cc1ncc(-c2nccc(Nc3cc4c(C(C)C)ncc(N5CC(CS(C)(=O)=O)C5)c4cn3)n2)s1` [Example 8, 5-isopropyl-8-(3-((methylsulfonyl)methyl)azetidin-1-yl)-N-(2-(2-methylthiazol-5-yl)pyrimidin-4-yl)-2,6-naphthyridin-3-amine], for which the values for the IC50 in experiment [1] (setting [3]) and in experiment [2] were under 10 nM and at most 15 nM, respectively.

`CC(C)c1ccc(N2CC(CS(C)(=O)=O)C2)c2cnc(Nc3ccnc(-c4cccnc4)n3)cc12` [Example 13, 5-isopropyl-8-(3-((methylsulfonyl)methyl)azetidin-1-yl)-N-(2-(pyridin-3-yl)pyrimidin-4-yl)isoquinolin-3-amine]: the figures for the IC50 in experiment [1] (setting [3]) and in experiment [2] were 10 to 20 nM and at most 15 nM, respectively.

Take `CCS(=O)(=O)CC1CN(c2ccc(C(C)C)c3cc(Nc4ccnc(-c5cnn(C)c5)n4)ncc23)C1` [Example 12, 8-(3-((ethylsulfonyl)methyl)azetidin-1-yl)-5-isopropyl-N-(2-(1-methyl-1H-pyrazol-4-yl)pyrimidin-4-yl)isoquinolin-3-amine]: the IC50 in experiment [1] (setting [3]) is 10 to 20 nM; in experiment [2], at most 15 nM.
